Experimental data published in ChEMBL document CHEMBL1909046, “DrugMatrix in vitro pharmacology data”.

How the values were obtained:
[1] = target: Sodium-dependent noradrenaline transporter (Homo sapiens, UniProt P23975); assay: DRUGMATRIX: Norepinephrine Transporter radioligand binding (ligand: [125I] RTI-55); format: cell membranes, MDCK, Membrane; settings: Not Active = under 50% inhibition at 10 µM
[2] = target: Aldo-keto reductase family 1 member B1 (Rattus norvegicus, UniProt P07943); assay: biochemical; format: tissue-based, Lens of camera-type eye;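 also: inhibition of aldose reductase enzyme activity, measured with DL-glyceraldehyde as the substrate; in other assays of this panel Not Active means under 50% inhibition at 10 µM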
B2 bradykinin receptor = target: T1, B2 bradykinin receptor (Homo sapiens, UniProt P30411); format: cell membranes, Membrane; settings: chem-1; also: in other assays of this panel Not Active means under 50% inhibition at 10 µM
T1 sequence (P30411 whole entry): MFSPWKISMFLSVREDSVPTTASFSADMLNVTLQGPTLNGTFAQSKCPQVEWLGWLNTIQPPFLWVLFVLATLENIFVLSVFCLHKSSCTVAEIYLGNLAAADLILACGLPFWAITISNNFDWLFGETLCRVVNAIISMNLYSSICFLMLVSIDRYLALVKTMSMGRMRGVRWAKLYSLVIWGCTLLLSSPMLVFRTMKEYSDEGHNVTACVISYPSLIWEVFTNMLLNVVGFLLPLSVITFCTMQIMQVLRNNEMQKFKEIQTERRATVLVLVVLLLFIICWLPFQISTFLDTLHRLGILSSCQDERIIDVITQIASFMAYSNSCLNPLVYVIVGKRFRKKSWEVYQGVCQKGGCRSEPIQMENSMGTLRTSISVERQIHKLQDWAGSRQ

[3] = target: T2, 5-hydroxytryptamine receptor 2C (Homo sapiens, UniProt P28335); assay: DRUGMATRIX: Serotonin (5-Hydroxytryptamine) 5-HT2C radioligand binding (ligand: [3H] Mesulergine); format: cell membranes, CHO-K1, Membrane; settings: Not Active = under 50% inhibition at 10 µM
T2 sequence (P28335 whole entry): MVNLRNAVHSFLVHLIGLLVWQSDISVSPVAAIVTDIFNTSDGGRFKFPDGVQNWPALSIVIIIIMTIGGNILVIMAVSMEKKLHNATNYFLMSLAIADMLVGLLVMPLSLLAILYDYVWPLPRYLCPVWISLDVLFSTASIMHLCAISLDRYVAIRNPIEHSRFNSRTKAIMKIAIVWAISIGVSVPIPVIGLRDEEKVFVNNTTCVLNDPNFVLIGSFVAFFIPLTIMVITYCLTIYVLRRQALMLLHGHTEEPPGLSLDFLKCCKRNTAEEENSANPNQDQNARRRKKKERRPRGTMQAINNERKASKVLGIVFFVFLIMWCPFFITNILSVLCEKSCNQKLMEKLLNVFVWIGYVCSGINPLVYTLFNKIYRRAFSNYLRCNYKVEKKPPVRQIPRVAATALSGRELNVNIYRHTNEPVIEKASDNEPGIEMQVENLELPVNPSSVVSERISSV

[4] = target: T3, Cholecystokinin receptor type A (Homo sapiens, UniProt P32238); format: cell membranes, Membrane; settings: 1321-n1; also: in other assays of this panel Not Active means under 50% inhibition at 10 µM
T3 sequence (P32238 whole entry): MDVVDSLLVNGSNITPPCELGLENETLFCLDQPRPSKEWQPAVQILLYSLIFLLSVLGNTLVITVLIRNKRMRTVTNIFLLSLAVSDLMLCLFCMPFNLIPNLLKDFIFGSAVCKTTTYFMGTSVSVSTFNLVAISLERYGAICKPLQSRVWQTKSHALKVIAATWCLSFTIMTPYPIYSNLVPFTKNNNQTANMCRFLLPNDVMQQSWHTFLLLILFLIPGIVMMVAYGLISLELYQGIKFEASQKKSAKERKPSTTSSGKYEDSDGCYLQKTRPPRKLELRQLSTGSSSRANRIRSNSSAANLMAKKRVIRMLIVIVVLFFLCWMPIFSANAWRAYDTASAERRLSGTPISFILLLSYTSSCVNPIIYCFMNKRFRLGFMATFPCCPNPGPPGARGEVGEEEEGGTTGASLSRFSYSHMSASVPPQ

D(4) dopamine receptor = target: T4, D(4) dopamine receptor (Homo sapiens, UniProt P21917); assay: DRUGMATRIX: Dopamine D4.2 radioligand binding (ligand: [3H] Spiperone); format: cell membranes, Membrane; settings: cho-k1; Not Active = under 50% inhibition at 10 µM
T4 sequence (P21917 whole entry): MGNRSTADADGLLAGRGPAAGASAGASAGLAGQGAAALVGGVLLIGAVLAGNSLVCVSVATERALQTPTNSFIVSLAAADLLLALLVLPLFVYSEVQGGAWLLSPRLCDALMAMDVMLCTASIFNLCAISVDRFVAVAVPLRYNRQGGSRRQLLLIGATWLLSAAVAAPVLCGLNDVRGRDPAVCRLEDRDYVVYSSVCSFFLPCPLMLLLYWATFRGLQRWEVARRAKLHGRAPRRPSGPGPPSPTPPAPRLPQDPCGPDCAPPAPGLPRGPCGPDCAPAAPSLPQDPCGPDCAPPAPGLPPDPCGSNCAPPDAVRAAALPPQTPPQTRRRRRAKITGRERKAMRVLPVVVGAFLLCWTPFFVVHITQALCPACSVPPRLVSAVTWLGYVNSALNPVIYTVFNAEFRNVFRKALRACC

[5] = target: Sodium-dependent dopamine transporter (Homo sapiens, UniProt Q01959); assay: DRUGMATRIX: Dopamine Transporter radioligand binding (ligand: [125I] RTI-55); format: cell membranes, CHO-K1, Membrane; settings: Not Active = under 50% inhibition at 10 µM
[6] = DRUGMATRIX: Imidazoline I2, Central radioligand binding (ligand: [3H] Idazoxan); format: cell membranes, Rattus norvegicus, Wistar, Cerebral cortex, Membrane; settings: Not Active = under 50% inhibition at 10 µM
[7] = target: Protein kinase C alpha type (Homo sapiens, UniProt P17252); format: cell-based; settings: sf9;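 also: inhibition of PKCalpha kinase activity measured in an enzyme assay with histone as the phosphorylation substrate; in other assays of this panel Not Active means under 50% inhibition at 10 µM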
[8] = target: Protein phosphatase 3 catalytic subunit alpha (Homo sapiens, UniProt Q08209); set-up: species or system Escherichia coli

Chain of Sodium-dependent dopamine transporter (Q01959 whole entry): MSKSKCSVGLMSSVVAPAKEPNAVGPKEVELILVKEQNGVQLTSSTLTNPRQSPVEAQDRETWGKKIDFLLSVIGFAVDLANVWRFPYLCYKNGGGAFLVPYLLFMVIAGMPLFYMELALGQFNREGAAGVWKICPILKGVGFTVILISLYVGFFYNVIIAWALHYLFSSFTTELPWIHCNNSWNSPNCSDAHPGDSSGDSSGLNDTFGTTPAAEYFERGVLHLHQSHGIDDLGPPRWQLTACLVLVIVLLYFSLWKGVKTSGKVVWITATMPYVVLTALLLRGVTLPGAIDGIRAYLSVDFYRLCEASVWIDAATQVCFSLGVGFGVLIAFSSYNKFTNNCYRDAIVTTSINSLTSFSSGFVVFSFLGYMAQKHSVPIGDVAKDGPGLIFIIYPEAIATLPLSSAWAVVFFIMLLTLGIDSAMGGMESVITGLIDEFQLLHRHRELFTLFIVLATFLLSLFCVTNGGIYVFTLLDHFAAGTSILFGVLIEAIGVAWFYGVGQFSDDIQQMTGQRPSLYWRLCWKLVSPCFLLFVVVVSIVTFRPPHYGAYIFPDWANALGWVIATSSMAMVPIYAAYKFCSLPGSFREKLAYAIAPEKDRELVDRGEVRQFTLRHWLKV
Chain of Sodium-dependent noradrenaline transporter (P23975 whole entry): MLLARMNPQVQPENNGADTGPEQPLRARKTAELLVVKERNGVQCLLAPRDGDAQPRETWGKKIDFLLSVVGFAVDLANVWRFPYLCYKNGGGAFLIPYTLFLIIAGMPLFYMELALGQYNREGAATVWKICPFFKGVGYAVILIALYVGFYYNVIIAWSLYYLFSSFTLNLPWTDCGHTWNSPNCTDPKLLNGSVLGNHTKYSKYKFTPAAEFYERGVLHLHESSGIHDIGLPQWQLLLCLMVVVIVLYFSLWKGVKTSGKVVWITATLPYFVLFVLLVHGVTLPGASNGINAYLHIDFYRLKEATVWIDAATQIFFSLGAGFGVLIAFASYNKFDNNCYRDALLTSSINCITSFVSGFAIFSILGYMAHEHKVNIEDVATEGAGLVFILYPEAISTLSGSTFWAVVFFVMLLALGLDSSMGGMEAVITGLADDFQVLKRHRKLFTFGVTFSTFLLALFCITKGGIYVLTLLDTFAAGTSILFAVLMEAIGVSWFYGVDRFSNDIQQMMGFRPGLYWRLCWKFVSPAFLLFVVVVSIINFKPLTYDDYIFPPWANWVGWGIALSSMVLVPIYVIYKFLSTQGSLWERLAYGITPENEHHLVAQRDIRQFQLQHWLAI

SMILES: CC[C@]1(O)C[C@@H]2CN(CCc3c([nH]c4ccccc34)[C@@](C(=O)OC)(c3cc4c(cc3OC)N(C)[C@H]3[C@@](O)(C(=O)OC)[C@H](OC(C)=O)[C@]5(CC)C=CCN6CC[C@]43[C@@H]65)C2)C1 [VINBLASTINE]
- IC50 ([1]; mdck): Not Active
- IC50 [2]: Not Active
- IC50 (B2 bradykinin receptor): Not Active
- IC50 ([3]; cho-k1): Not Active
- IC50 [4]: Not Active
- IC50 (D(4) dopamine receptor): Not Active
- IC50 ([5]; cho-k1): Not Active
- IC50 [6]: Not Active
- Ki [6]: Not Active
- IC50 [7]: Not Active
- IC50 [8]: Not Active

SMILES: COCCOC(=O)C1=C(C)NC(C)=C(C(=O)OC(C)C)C1c1cccc([N+](=O)[O-])c1 (stereo unspecified) [NIMODIPINE]
- IC50 ([1]; mdck): Not Active
- IC50 [2]: Not Active
- IC50 (B2 bradykinin receptor): Not Active
- IC50 ([3]; cho-k1): Not Active
- IC50 [4]: Not Active
- IC50 (D(4) dopamine receptor): Not Active
- IC50 ([5]; cho-k1): Not Active
- IC50 [6]: Not Active
- Ki [6]: Not Active
- IC50 [7]: Not Active
- IC50 [8]: Not Active

SMILES: CC(=O)N1CCN(c2ccc(OCC3COC(Cn4ccnc4)(c4ccc(Cl)cc4Cl)O3)cc2)CC1 (stereo unspecified) [KETOCONAZOLE]
- IC50 ([1]; read-out: IC50): 24.2 µM
- Ki ([1]; read-out: Ki): 24 µM
- IC50 [2]: Not Active
- IC50 (B2 bradykinin receptor): Not Active
- IC50 ([3]; cho-k1): Not Active
- IC50 [4]: Not Active
- IC50 (D(4) dopamine receptor): Not Active
- IC50 ([5]; read-out: IC50): 23.5 µM
- Ki ([5]; read-out: Ki): 18.7 µM
- IC50 [6]: Not Active
- Ki [6]: Not Active
- IC50 [7]: Not Active
- IC50 [8]: Not Active

SMILES: O=C(c1ccc(OCCN2CCCCC2)cc1)c1c(-c2ccc(O)cc2)sc2cc(O)ccc12 [RALOXIFENE]
- IC50 [2]: Not Active
- IC50 (B2 bradykinin receptor): Not Active
- IC50 [4]: Not Active
- IC50 (D(4) dopamine receptor): Not Active
- IC50 [6]: Not Active
- Ki [6]: Not Active
- IC50 [7]: Not Active
- IC50 [8]: Not Active

SMILES: CC/C(=C(/CC)c1ccc(O)cc1)c1ccc(O)cc1 [DIETHYLSTILBESTROL]
- IC50 [2]: Not Active
- IC50 (B2 bradykinin receptor): Not Active
- IC50 [4]: Not Active
- IC50 (D(4) dopamine receptor): Not Active
- IC50 [7]: Not Active
- IC50 [8]: Not Active

SMILES: C=CCN1CC[C@]23c4c5ccc(O)c4O[C@H]2C(=O)CC[C@@]3(O)[C@H]1C5 [NALOXONE]
- IC50 ([1]; mdck): Not Active
- IC50 [2]: Not Active
- IC50 (B2 bradykinin receptor): Not Active
- IC50 ([3]; cho-k1): Not Active
- IC50 [4]: Not Active
- IC50 (D(4) dopamine receptor): Not Active
- IC50 ([5]; cho-k1): Not Active
- IC50 [7]: Not Active
- IC50 [8]: Not Active

SMILES: Clc1ccc2c(c1)C(N1CCNCC1)=Nc1ccccc1O2 [AMOXAPINE]
- IC50 [2]: Not Active
- IC50 (B2 bradykinin receptor): Not Active
- IC50 [4]: Not Active
- IC50 (D(4) dopamine receptor): Not Active
- IC50 ([5]; cho-k1): Not Active
- IC50 [7]: Not Active
- IC50 [8]: Not Active

SMILES: CC(C)(C)c1ccc(C(O)CCCN2CCC(C(O)(c3ccccc3)c3ccccc3)CC2)cc1 (stereo unspecified) [TERFENADINE]
- IC50 [2]: Not Active
- IC50 (B2 bradykinin receptor): Not Active
- IC50 [4]: Not Active
- IC50 (D(4) dopamine receptor): Not Active
- IC50 [6]: Not Active
- Ki [6]: Not Active
- IC50 [7]: Not Active
- IC50 [8]: Not Active

SMILES: CN1CCC(=C2c3ccccc3C=Cc3ccccc32)CC1 [CYPROHEPTADINE]
- IC50 [2]: Not Active
- IC50 (B2 bradykinin receptor): Not Active
- IC50 ([3]; read-out: IC50): 0.00244 µM
- Ki ([3]; read-out: Ki): 0.00128 µM
- IC50 [4]: Not Active
- IC50 (D(4) dopamine receptor): Not Active
- IC50 ([5]; cho-k1): Not Active
- IC50 [7]: Not Active
- IC50 [8]: Not Active

SMILES: COc1cc2c(c(OC)c1OC)-c1ccc(OC)c(=O)cc1[C@@H](NC(C)=O)CC2 [COLCHICINE]
- IC50 ([1]; mdck): Not Active
- IC50 [2]: Not Active
- IC50 (B2 bradykinin receptor): Not Active
- IC50 ([3]; cho-k1): Not Active
- IC50 [4]: Not Active
- IC50 (D(4) dopamine receptor): Not Active
- IC50 ([5]; cho-k1): Not Active
- IC50 [7]: Not Active
- IC50 [8]: Not Active
